Test systems include K-562 leukemia; OVCAR-5 ovarian; SNB-75 CNS; M14 melanoma; T-47D breast; LOX IMVI melanoma; MOLT-4 leukemia; PC-3 prostate; SR leukemia; COLO 205 colon.
Holding throughout (test): NCI anticancer screen, dose series, 48 h

Each structure is given as a SMILES string.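 Cultured in 96-well plates, cells were exposed to test compound for 48 hours across five concentrations. GI50: concentration for 50% inhibition of growth. TGI is the concentration that stops growth completely.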 Some results are limits rather than exact numbers.

In the case of `Cc1ccc(-n2nnc3c(sc4ccccc43)c2=O)cc1`, the GI50 is greater than 100 µM with K-562 leukemia; greater than 100 µM in the test with OVCAR-5 ovarian; 3.08 µM in the test on SNB-75 CNS; greater than 100 µM with M14 melanoma; 30.4 µM with T-47D breast; 4.09 µM in the test with LOX IMVI melanoma. Further, the GI50 was greater than 100 µM in the test with MOLT-4 leukemia, 7.73 µM in the test with PC-3 prostate, greater than 100 µM in the test with SR leukemia and 6.23 µM in the test with COLO 205 colon. Further, the TGI in the test with K-562 leukemia was greater than 100 µM; with OVCAR-5 ovarian, greater than 100 µM; in the test on SNB-75 CNS it was 16.3 µM; in the test on M14 melanoma it was greater than 100 µM; with T-47D breast it was greater than 100 µM; with LOX IMVI melanoma, greater than 100 µM. In addition, the TGI in the test on MOLT-4 leukemia, in the test on PC-3 prostate, in the test on SR leukemia and in the test with COLO 205 colon was greater than 100 µM in each case.
In the case of `O=C1c2ccccc2-c2c1c1c(O)cccc1n2CCCc1ccccc1`, the GI50 is 22.7 µM with K-562 leukemia; 64 µM in the test on OVCAR-5 ovarian; 51.7 µM in the test with SNB-75 CNS; greater than 100 µM in the test with M14 melanoma; 13 µM in the test on T-47D breast; 43.9 µM in the test with LOX IMVI melanoma. Also, the GI50 was 30.4 µM in the test with MOLT-4 leukemia, 16.2 µM in the test with PC-3 prostate, 4.05 µM in the test with SR leukemia and 17.8 µM in the test with COLO 205 colon. Besides, the TGI in the test with K-562 leukemia, in the test with OVCAR-5 ovarian, in the test on SNB-75 CNS, with M14 melanoma, in the test on T-47D breast and with LOX IMVI melanoma was greater than 100 µM throughout. Further, the TGI in the test with MOLT-4 leukemia, in the test with PC-3 prostate, in the test with SR leukemia and in the test with COLO 205 colon was greater than 100 µM throughout.
Consider `COc1ccc(-c2nnc(Nc3nc(O)c(C4=c5cc(OC(F)(F)F)ccc5=NC4=O)s3)o2)cc1`, for which the GI50 with K-562 leukemia was 14.4 µM; in the test on OVCAR-5 ovarian, 18.2 µM; in the test with SNB-75 CNS, 15.3 µM; in the test with M14 melanoma, 8.76 µM; in the test with T-47D breast, 69.8 µM; with LOX IMVI melanoma, 16.3 µM. Further, the GI50 in the test on MOLT-4 leukemia is 18.5 µM; in the test on PC-3 prostate, 19.9 µM; with SR leukemia, 9 µM; in the test with COLO 205 colon, 25.4 µM. Also, the TGI with K-562 leukemia is 30.4 µM; with OVCAR-5 ovarian, 43.6 µM; in the test with SNB-75 CNS, 36.8 µM; in the test on M14 melanoma it was 28.5 µM; in the test with T-47D breast, greater than 100 µM; in the test with LOX IMVI melanoma, 56.1 µM. Moreover, the TGI in the test with MOLT-4 leukemia is 49.3 µM; in the test on PC-3 prostate it was 57.5 µM; with SR leukemia, 34.2 µM; in the test with COLO 205 colon, greater than 100 µM.
Turning to `Cc1ccc(NC(C(=O)c2ccccc2)c2ccccc2)cc1` (stereo not given), the GI50 was 3.07 µM with K-562 leukemia; 21.6 µM with OVCAR-5 ovarian; 3.58 µM with SNB-75 CNS; 4 µM in the test on M14 melanoma; 2.02 µM in the test on T-47D breast; 3.22 µM in the test on LOX IMVI melanoma. Further, the GI50 in the test with MOLT-4 leukemia is 4.71 µM; in the test with PC-3 prostate, 2.78 µM; with SR leukemia, 4.26 µM; in the test on COLO 205 colon, 3.02 µM. The TGI with K-562 leukemia was greater than 100 µM; in the test with OVCAR-5 ovarian it was greater than 100 µM; in the test on SNB-75 CNS, 20.3 µM; in the test with M14 melanoma, 33.4 µM; in the test with T-47D breast, 11.5 µM; in the test with LOX IMVI melanoma, 39.4 µM. In addition, the TGI in the test with MOLT-4 leukemia is greater than 100 µM; in the test on PC-3 prostate it was 52.4 µM; in the test on SR leukemia it was 52.9 µM; in the test with COLO 205 colon it was 13.7 µM.
`O=c1[nH]cc(CO)c(=O)[nH]1`: the GI50 in the test with K-562 leukemia, in the test with OVCAR-5 ovarian, with SNB-75 CNS, with M14 melanoma, with T-47D breast and with LOX IMVI melanoma was greater than 100 µM throughout. Besides, the GI50 in the test on MOLT-4 leukemia, in the test with PC-3 prostate, with SR leukemia and in the test with COLO 205 colon was greater than 100 µM throughout. Moreover, the TGI in the test with K-562 leukemia, in the test on OVCAR-5 ovarian, in the test with SNB-75 CNS, with M14 melanoma, in the test on T-47D breast and in the test on LOX IMVI melanoma was greater than 100 µM throughout. In addition, the TGI with MOLT-4 leukemia, in the test on PC-3 prostate, in the test with SR leukemia and in the test on COLO 205 colon was greater than 100 µM throughout.
For the compound `COc1ccc(C2=NNC(c3cc(Cc4ccc(O)c(C5CC(c6ccc(OC)cc6)=NN5)c4)ccc3O)C2)cc1` (stereo not given), the GI50 in the test on K-562 leukemia is 7.74 µM; with OVCAR-5 ovarian, 17.1 µM; in the test with SNB-75 CNS, 4.98 µM; in the test on M14 melanoma, 10.4 µM; in the test on T-47D breast, 4.61 µM; in the test on LOX IMVI melanoma, 7.38 µM. In addition, the GI50 in the test on MOLT-4 leukemia is 17.8 µM; in the test on PC-3 prostate, 61.4 µM; in the test on SR leukemia, 16.4 µM; in the test on COLO 205 colon, 19.4 µM. For the same compound, the TGI in the test on K-562 leukemia was greater than 100 µM; in the test with OVCAR-5 ovarian it was 88 µM; in the test on SNB-75 CNS, greater than 100 µM; in the test with M14 melanoma, 38.3 µM; in the test with T-47D breast it was greater than 100 µM; in the test on LOX IMVI melanoma it was 32.3 µM. Further, the TGI in the test on MOLT-4 leukemia, in the test on PC-3 prostate, in the test with SR leukemia and in the test on COLO 205 colon was greater than 100 µM each time.
Consider `NS(=O)(=O)c1cccc(-c2cc3ccncc3cc2OCc2ccccc2)c1`, for which the GI50 was 6.61 µM with K-562 leukemia; 14.8 µM in the test with OVCAR-5 ovarian; 3.23 µM in the test with SNB-75 CNS; 14.5 µM in the test with M14 melanoma; 12.7 µM in the test with T-47D breast; 12.4 µM in the test with LOX IMVI melanoma. In addition, the GI50 with MOLT-4 leukemia is 8.44 µM; in the test with PC-3 prostate, 10.8 µM; in the test with SR leukemia, 11.6 µM; in the test with COLO 205 colon, 10.7 µM. For the same compound, the TGI in the test on K-562 leukemia, in the test with OVCAR-5 ovarian, with SNB-75 CNS, in the test with M14 melanoma, in the test on T-47D breast and in the test on LOX IMVI melanoma was greater than 25 µM each time. Besides, the TGI with MOLT-4 leukemia, with PC-3 prostate, with SR leukemia and in the test with COLO 205 colon was greater than 25 µM each time.

Source of the values: PubChem BioAssay (NCI).
